Measurements taken from paper PMC10462762, “Chemoenzymatic synthesis of genetically-encoded multivalent liquid N-glycan arrays” (Nature Communications, 2023).

Target: T1, α-(2→6)-sialyltransferase from Photobacterium damselae (Pd26ST) (Photobacterium damselae, UniProt O66375)
T1 construct: gene bst; recombinant, expressed and purified as in supplementary information
T1 sequence (O66375 16-675): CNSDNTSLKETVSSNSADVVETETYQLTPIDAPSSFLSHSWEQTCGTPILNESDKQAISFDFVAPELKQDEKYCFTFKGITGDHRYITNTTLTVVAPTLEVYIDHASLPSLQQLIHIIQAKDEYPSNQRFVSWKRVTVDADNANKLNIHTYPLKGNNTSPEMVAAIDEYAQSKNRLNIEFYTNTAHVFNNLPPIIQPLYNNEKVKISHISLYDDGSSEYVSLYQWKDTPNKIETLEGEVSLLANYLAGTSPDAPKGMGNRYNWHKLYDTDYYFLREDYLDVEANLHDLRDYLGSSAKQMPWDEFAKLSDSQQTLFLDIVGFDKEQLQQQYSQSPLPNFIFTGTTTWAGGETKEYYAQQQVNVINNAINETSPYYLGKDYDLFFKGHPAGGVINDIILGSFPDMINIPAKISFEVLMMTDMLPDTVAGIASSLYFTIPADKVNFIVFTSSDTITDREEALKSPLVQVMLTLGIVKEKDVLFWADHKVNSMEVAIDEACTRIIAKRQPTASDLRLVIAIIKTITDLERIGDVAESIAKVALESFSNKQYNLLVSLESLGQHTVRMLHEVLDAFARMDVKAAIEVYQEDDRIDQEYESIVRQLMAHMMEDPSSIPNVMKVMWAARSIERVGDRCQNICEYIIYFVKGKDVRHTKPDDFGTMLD
Experiment: sialylation of phage-displayed LacNAc / Lac, MALDI-TOF MS
Format: biochemical
Conditions: donor substrate; acceptor LacNAc- and lactose-phage; 9 h

CC(=O)N[C@H]1[C@H]([C@H](O)[C@H](O)CO)O[C@](OP(=O)(O)OC[C@H]2O[C@@H](n3ccc(N)nc3=O)[C@H](O)[C@@H]2O)(C(=O)O)C[C@@H]1O [CMP-Neu5Ac]
sialylation of phage-displayed LacNAc / Lac, MALDI-TOF MS: (Pd26ST) and cytidine-5’-monophosphate-N-acetylneuraminic acid (CMP-Neu5Ac)
